The text below walks through data of US6849732B2, “Metalloproteinase inhibitors, pharmaceutical compositions containing them and their pharmaceutical uses, and methods and intermediates useful for their preparation” (Agouron Pharmaceuticals, Inc., priority 1995, dated 2005).

Structures can show the parent of a compound that is named as a salt.

For one data set, the target named is stromelysin (HSLN) (Homo sapiens, UniProt P08254). Nature of the data set: MCA fluorogenic enzyme assay, competitive inhibition analysis (Ki,app), stromelysin. Format: biochemical. As to conditions: Ki,app; MCA peptide substrate, 37° C., pH 7.5; read-out: Enzyme Inhibition Constants (K1) HSLN.
stromelysin (HSLN), sequence (P08254 100-477): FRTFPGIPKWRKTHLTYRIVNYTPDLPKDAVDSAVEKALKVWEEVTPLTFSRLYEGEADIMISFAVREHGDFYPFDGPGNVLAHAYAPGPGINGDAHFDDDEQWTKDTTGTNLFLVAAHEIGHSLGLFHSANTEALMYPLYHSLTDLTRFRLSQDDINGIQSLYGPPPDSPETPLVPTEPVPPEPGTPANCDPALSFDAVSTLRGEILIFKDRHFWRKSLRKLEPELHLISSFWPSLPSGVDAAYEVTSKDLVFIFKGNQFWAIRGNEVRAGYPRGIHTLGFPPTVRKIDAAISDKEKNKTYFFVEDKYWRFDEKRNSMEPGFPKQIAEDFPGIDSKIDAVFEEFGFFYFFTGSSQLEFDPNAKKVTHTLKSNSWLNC
A further data set has as its target T1, matrilysin (Matr.) (Homo sapiens, UniProt P09237).
T1 sequence (P09237 95-267): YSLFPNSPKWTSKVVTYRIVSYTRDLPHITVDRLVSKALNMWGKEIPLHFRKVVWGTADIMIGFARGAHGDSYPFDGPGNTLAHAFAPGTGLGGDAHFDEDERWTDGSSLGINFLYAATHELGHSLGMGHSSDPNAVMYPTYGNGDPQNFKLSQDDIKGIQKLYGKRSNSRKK
Nature of the data set: MCA fluorogenic enzyme assay, competitive inhibition analysis (Ki,app), matrilysin. Format: biochemical. As to conditions: MCA peptide substrate, 37° C., pH 7.5, read-out: Enzyme Inhibition Constants (K1) Matr. As to the method: Stromelysin enzymatic activity was measured using a modified version of a resonance energy transfer fluorogenic assay as described in FEBS, vol. 296(3), p. 263 (1992), the disclosure of which is incorporated herein by reference. The MCA-peptide substrate is shown below. The fluorescent MCA group is quenched by resonance energy transfer to the 2,4-dinitrophenyl group. Matrix metalloproteinases cleave this substrate at the Gly-Leu bond. Cleavage results in the loss of energy transfer and a large increase in fluorescence of the MCA group. [drawing 56] 7-methoxycoumarin-4-yl-acetyl-pro-leu-gly-leu-3-(2,4-dinitrophenyl)-L-2,3-diaminoproprionyl-ala-arg-NH2
The MCA assay was performed at 37° C. in buffer containing 50 mM Tricine (pH 7.5), 10 mM CaCl2, 200 mM NaCl, and 1% DMSO with the following concentrations of matrix metalloproteinases: 1.4 nM stromelyin, 0.063 nM matrilysin, and 0.030 nM gelatinase A. The concentration of MCA substrate was 10 or 20 μM in a final volume of 1.6 mL. Fluorescence data was collected with Perkin-Elmer LS-5B and LS-5B spectrofluorimeters with λexcitation=328 nm and λemission=393 nm. Spectrofluorimeters were interfaced with IBM-compatible microcomputer systems.
The Km for the MCA peptide substrate with the matrix metalloproteinases is quite high and exceeds its solubility under assay conditions. Consequently, the apparent Ki (Ki,app) was determined to describe the strength of inhibition. However, in this case, Ki,app would be essentially equal to Ki since [S]<<Km. For the determination of Ki,app, the concentration of the inhibitor was varied at a constant and low concentration of substrate and the steady-state rates of fluorescence change determined. In most cases absorptive quench due to the presence of ligand was not observed. For slow-binding inhibitors, onset of inhibition curves were collected for at least 45 minutes so that equilibrium was established. Steady-state rates of fluorescence change were obtained by fitting a curve to an equation for a single exponential decay containing a linear phase. The fitted value of the linear phase was taken as the steady-state rate. The steady-state rates were fitted to the Michaelis equation describing competitive inhibition by non-linear methods. Data resulting from tight-binding inhibition was analyzed, and Ki,app determined by fitting the data to the tight-binding equation of Morrison See (Biochem. Biophys. Acta, vol. 185, pp. 269-286 (1969)) by non-linear methods.

The target of a further data set is T2, HFC (Homo sapiens, UniProt P03956).
T2 sequence (P03956 100-469): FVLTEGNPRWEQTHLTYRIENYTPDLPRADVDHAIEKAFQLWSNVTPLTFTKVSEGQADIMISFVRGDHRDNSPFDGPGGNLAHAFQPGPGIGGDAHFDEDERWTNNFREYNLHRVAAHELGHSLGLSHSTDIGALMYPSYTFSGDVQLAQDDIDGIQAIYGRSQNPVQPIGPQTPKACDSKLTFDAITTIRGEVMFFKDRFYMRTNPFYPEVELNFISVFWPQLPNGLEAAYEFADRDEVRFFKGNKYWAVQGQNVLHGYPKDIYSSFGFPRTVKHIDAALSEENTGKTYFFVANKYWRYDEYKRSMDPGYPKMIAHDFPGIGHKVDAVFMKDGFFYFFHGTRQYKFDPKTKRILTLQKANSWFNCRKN
Nature of the data set: MCA fluorogenic enzyme assay, competitive inhibition analysis (Ki,app), HFC. Format: biochemical. As to conditions: MCA peptide substrate, 37° C., pH 7.5, read-out: Enzyme Inhibition Constants (K1) HFC.

The next data set has as its target T3, gelatinase A (HG72kD) (Homo sapiens, UniProt P08253).
T3 sequence (P08253 110-660): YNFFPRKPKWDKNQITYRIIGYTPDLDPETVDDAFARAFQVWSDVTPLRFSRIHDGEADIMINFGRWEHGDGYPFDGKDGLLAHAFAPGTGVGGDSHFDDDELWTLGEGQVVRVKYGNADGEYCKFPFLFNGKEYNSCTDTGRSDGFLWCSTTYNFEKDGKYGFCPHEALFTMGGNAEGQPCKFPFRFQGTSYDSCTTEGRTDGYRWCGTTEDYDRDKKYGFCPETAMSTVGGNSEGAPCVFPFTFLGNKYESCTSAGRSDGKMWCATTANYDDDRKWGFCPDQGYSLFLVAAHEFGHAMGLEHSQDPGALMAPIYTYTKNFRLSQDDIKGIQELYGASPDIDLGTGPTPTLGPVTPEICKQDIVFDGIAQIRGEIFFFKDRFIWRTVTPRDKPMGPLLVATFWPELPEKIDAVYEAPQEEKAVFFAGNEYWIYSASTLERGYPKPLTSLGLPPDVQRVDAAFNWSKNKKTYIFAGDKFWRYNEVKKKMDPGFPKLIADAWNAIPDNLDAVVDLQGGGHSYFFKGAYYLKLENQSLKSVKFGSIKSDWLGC
Nature of the data set: MCA fluorogenic enzyme assay, competitive inhibition analysis (Ki,app), gelatinase A. The class given is biochemical. As to conditions: MCA peptide substrate, 37° C., pH 7.5, read-out: Enzyme Inhibition Constants (K1) HG72kD.

The next data set has as its target Coll3 (Homo sapiens, UniProt P45452). Briefly: MCA fluorogenic enzyme assay, competitive inhibition analysis (Ki,app), Coll3. Format: biochemical. As to conditions: MCA peptide substrate, 37° C., pH 7.5, read-out: Enzyme Inhibition Constants (K1) Coll3.
The subject of data set [1] is murine Lewis lung carcinoma (NIH) tumor line. Briefly: Tumor model: subcutaneous Lewis lung carcinoma, primary tumor growth and lung metastases. Format: in vivo, female BDF1 mice. Conditions: 50 mg/kg; for Tumor Growth Delay / % Inhibition-Lung Metastases: i.p., daily, Day 1-Day 21; for Tumor Growth Delay: delay in reaching 1000 mm^3 tumor volume between control and treated animals; for % Inhibition-Lung Metastases: metastases counted 22 days after tumor implantation. The text has this:
Primary subcutaneous tumors were established in female BDF1 mice by trocar inoculation of the murine Lewis lung carcinoma (NIH) tumor line. This tumor line produces spontaneous lung metastases which arise from the primary tumor. Primary tumor growth was monitored by measuring the length and width of the subcutaneous tumor using calipers; lung metastases were counted at the end of the experiment (22 days after tumor implantation) by removing the lungs and counting the lesions using a dissecting microscope. The test compound was administered daily, i.p., beginning 24 hours after tumor implantation (day 1) and continuing through day 21. Primary tumor volumes and number of lung metastases were compared to control animals using an ANOVA followed by a comparison of means using the F statistic. […] All drugs were administered at 50 mg/kg, i.p., daily, Day 1-Day 21.

Data set [2] deals with bovine nasal cartilage plugs. Briefly: Arthritis model: implanted bovine nasal cartilage plugs in sponges impregnated with Mycobacterium tuberculosis. Format: in vivo, female Lewis rats. Conditions: p < 0.01; for weight loss % inhibition: cartilage plug weight; for hydroxyproline % protection: hydroxyproline content of plugs. The procedure:
Previously frozen bovine nasal cartilage plugs weighing approximately 20 mg were embedded in polyvinyl sponges impregnated with Mycobacterium tuberculosis and implanted subcutaneously in female Lewis rats. Dosing was begun 9 days after implantation and the plugs were harvested about one week later. The plugs were weighed and then hydrolyzed and the hydroxyproline content measured. Efficaciousness was determined by the comparison of the compound-treated groups with vehicle-treated controls.

For the compound `O=C(NO)[C@H]1COCCN1S(=O)(=O)c1ccc(Oc2ccc(Cl)cc2)cc1` [8(a), 3(R)-N-hydroxy-4-(4-(4-chlorophenoxy)benzenesulfonyl)-morpholine-3-carboxamide], the Ki at stromelysin (HSLN) was 0.093 nM; at matrilysin (Matr.), 77 nM; on HFC, 8.9 nM; on gelatinase A (HG72kD), 0.031 nM; at Coll3, 0.021 nM. Further, the “Tumor Growth Delay” value in data set [1] was -0.1 days. Moreover, the “% Inhibition-Lung Metastases” value in data set [1] is reported as 7.5%.
`CC1(C)C(C(=O)NO)N(S(=O)(=O)c2ccc(Oc3ccc(Cl)cc3)cc2)CC[S+]1[O-]` [Example 19(b), 1(R), 3(S)-N-hydroxy-4-(4-(4-chlorophenoxy)benzenesulfonyl)-2,2-dimethyl-1-oxo-tetrahydro-2H-1,4-thiazine-3-carboxamide] showed a melting point of 145 to 147 °C. Further, the Ki at stromelysin (HSLN) was found to be 2.5 nM. For the same compound, the Ki at gelatinase A (HG72kD) was determined as 0.018 nM.
In the case of `Cl.O=C(NO)C1CNCCN1S(=O)(=O)c1ccc(Oc2ccc(Br)cc2)cc1` (racemic) [5(a), 2(R/S)-N-hydroxy-1(4-(4-bromophenoxy)benzenesulfonyl)-piperazine-2-carboxamide hydrochloride], the Ki at stromelysin (HSLN) is 1.8 nM; at matrilysin (Matr.), 263 nM; on HFC it was 68 nM; on gelatinase A (HG72kD) it was 0.77 nM; on Coll3, 1.1 nM. In addition, in data set [1], the “Tumor Growth Delay” value worked out at 2.0 days. Besides, in data set [1], the “% Inhibition-Lung Metastases” value turned out to be 13.6%. In addition, the “weight loss % inhibition” value in data set [2] (dose p.o. 10 mg/kg/day) turned out to be 59.6%. Also, the hydroxyproline % protection in data set [2] (dose p.o. 10 mg/kg/day) worked out at 72.5%.
With `CC(C)(C)OC(=O)N1CCN(S(=O)(=O)c2ccc(Oc3ccc(Cl)cc3)cc2)[C@@H](C(=O)NO)C1` [Example 9(a), 2(R)-N-hydroxy-1-(4-(4-chlorophenoxy)benzenesulfonyl)-4-(t-butoxycarbonyl)-piperazine-2-carboxamide], the Ki came out at 0.31 nM at stromelysin (HSLN), 142 nM on matrilysin (Matr.), 0.007 nM on gelatinase A (HG72kD) and 0.006 nM at Coll3. Also, the “Tumor Growth Delay” value in data set [1] is on record as 7.2 days (p < 0.025). Moreover, in data set [1], the “% Inhibition-Lung Metastases” value was 77.6% (p < 0.05). The “tumor growth delay relative to control (significance, in words)” value in data set [1] (p<0.025) is given as “statistically significant”. For the same compound, the “number of lung metastases relative to the control (significance, in words)” value in data set [1] (p<0.05) was “statistically significant”.
`Cc1ccc(Oc2ccc(S(=O)(=O)Cl)cc2)cc1` [2(b), 4-(4-Methylphenoxy)benzenesulfonyl chloride] displayed a melting point of 295 to 300 °C. Besides, the “weight loss % inhibition” value in data set [2] (dose p.o. 25 mg/kg/day) is 81.1%.
`O=C(NO)C1CNCCN1S(=O)(=O)c1ccc(Oc2ccccc2)cc1` (racemic) [Example 5(b), 2(R/S)-N-hydroxy-1-(4-phenoxybenzenesulfonyl)-piperazine-2-carboxamide] came in with a melting point of 160.4 °C. Moreover, the Ki on stromelysin (HSLN) was 6.2 nM. In addition, the Ki at matrilysin (Matr.) was 560 nM. In addition, the Ki on gelatinase A (HG72kD) turned out to be 0.864 nM.
Take `CCOC(=O)CN1CCN(S(=O)(=O)c2ccc(Oc3ccc(Cl)cc3)cc2)[C@@H](C(=O)NO)C1` (as salt: hydrochloride) [Example 11(c), 2(R)-N-hydroxy-1-(4-(4-chlorophenoxy)benzenesulfonyl)-4-(ethoxycarbonylmethyl)-piperazine-2-carboxamide hydrochloride]: the melting point was 163.7 °C.
Regarding `CC(C)(C)OC(=O)N1CCN(S(=O)(=O)c2ccc(Oc3ccc(Br)cc3)cc2)C(C(=O)NO)C1` (racemic) [Example 4, 2(R/S)-N-hydroxy-1-(4-(4-bromophenoxy)benzenesulfonyl)-4-(t-butoxycarbonyl)-piperazine-2-carboxamide], the melting point was 112.4 °C. Besides, the Ki on stromelysin (HSLN) turned out to be 0.73 nM. The Ki on matrilysin (Matr.) is 378 nM. Further, at HFC, the Ki stood at 60 nM. The Ki on gelatinase A (HG72kD) came to 0.025 nM. Also, on Coll3, the Ki is 0.07 nM.
As to `CC(=O)N1CCN(S(=O)(=O)c2ccc(Oc3ccccc3)cc2)C(C(=O)NO)C1` (racemic) [7(a), 2(R/S)-N-hydroxy-1-(4-phenoxybenzenesulfonyl)-4-acetyl-piperazine-2-carboxamide], the Ki turned out to be 0.64 nM at stromelysin (HSLN), 113 nM on matrilysin (Matr.), 0.11 nM on gelatinase A (HG72kD) and 0.05 nM on Coll3. Further, in data set [1], the “Tumor Growth Delay” value is given as 0.0 days. Also, in data set [1], the “% Inhibition-Lung Metastases” value worked out at 16.1%. Also, the “weight loss % inhibition” value in data set [2] (dose p.o. 10 mg/kg/day) was determined as 77.4%. The compound further had a hydroxyproline % protection in data set [2] (dose p.o. 10 mg/kg/day) of 86.7%.
As to `CC1(C)SCCN(S(=O)(=O)c2ccc(Oc3ccc(-n4ccnc4)cc3)cc2)[C@H]1C(=O)NO` [3(a), 3(S)-N-hydroxy-4-(4-(4-(imidazol-1-yl)phenoxy)benzenesulfonyl)-2,2-dimethyl-tetrahydro-2H-1,4-thiazine-3-carboxamide], the Ki turned out to be 0.25 nM on stromelysin (HSLN); 5 nM on matrilysin (Matr.); 15 nM on HFC; 0.011 nM at gelatinase A (HG72kD); 0.017 nM on Coll3. Besides, the “weight loss % inhibition” value in data set [2] (dose p.o. 25 mg/kg/day) was 97.5%.
